Measured values taken from the NIST ThermoML archive (doi:10.1016/j.fluid.2019.04.036).

Conditions: Liquid, Transpiration method

CCCCN(C=O)CCCC [N,N-dibutylformamide]
Conditions	vapor or sublimation pressure [kPa]
293.1 K	0.0026
295.8 K	0.00329
296.9 K	0.00365
298 K	0.004
298.7 K	0.00421
298.9 K	0.00438
299.3 K	0.00469
301.4 K	0.00534
304.5 K	0.00695
304.6 K	0.00705
304.8 K	0.00709
308.3 K	0.0097
308.7 K	0.01006
309.9 K	0.01103
310.7 K	0.01193
311.6 K	0.01265
312.5 K	0.01383
313.3 K	0.01469
314.7 K	0.01666
315.1 K	0.01677
315.3 K	0.01776
318.2 K	0.0217
318.4 K	0.02183
320.5 K	0.0256
321.1 K	0.02589
322.6 K	0.03097
322.8 K	0.03141
323.8 K	0.03251
325.8 K	0.03894
326.8 K	0.04037
329.4 K	0.04901
329.6 K	0.04927
334.7 K	0.0724

CCN(C=O)CC [N,N-diethylformamide]
Conditions	vapor or sublimation pressure [kPa]
288.8 K	0.0751
292.2 K	0.0961
295.1 K	0.1173
300.5 K	0.1677
300.7 K	0.169
303.7 K	0.211
305.7 K	0.2482
310.7 K	0.3265
315.7 K	0.4646
320.8 K	0.6274
323.2 K	0.7094
325.8 K	0.8534
330.9 K	1.093
335.9 K	1.479
338.5 K	1.733
340.9 K	1.948
346 K	2.46
348.5 K	2.893
350.9 K	3.209
356.1 K	4.164

CCCN(C=O)CCC [N,N-dipropylformamide]
Conditions	vapor or sublimation pressure [kPa]
278.5 K	0.00516
282.4 K	0.00741
283.4 K	0.00814
285.1 K	0.00949
288.2 K	0.01246
290.2 K	0.01527
292.2 K	0.01766
294.8 K	0.02239
295.8 K	0.02392
296.5 K	0.02608
298.4 K	0.03075
299.4 K	0.03131
301.2 K	0.03699
302.9 K	0.04152
305.1 K	0.05251
306.1 K	0.05391
307.2 K	0.05892
308.2 K	0.06219
310.4 K	0.07592
311.3 K	0.08121
313.4 K	0.09479
315.4 K	0.113
316.4 K	0.1145
318.5 K	0.1321
319.4 K	0.1476

CCCCNC=O [N-butylformamide]
Conditions	vapor or sublimation pressure [kPa]
297.1 K	0.00293
298.2 K	0.00321
299.3 K	0.00349
301.2 K	0.00422
304.2 K	0.0056
307.2 K	0.00731
310.2 K	0.00912
314.1 K	0.01307
316.2 K	0.01498
317.8 K	0.01763
318.2 K	0.01802
320.2 K	0.02208
323.1 K	0.02695
326.2 K	0.03461
329.1 K	0.04093
331.2 K	0.05017
334.2 K	0.06336
337.1 K	0.07893
340.2 K	0.09365
343.2 K	0.1151
346.2 K	0.1403
349.1 K	0.1719
352.2 K	0.208

CN(C)C=O [dimethylformamide]
Conditions	vapor or sublimation pressure [kPa]
276.3 K	0.1229
279.3 K	0.1498
281.2 K	0.1752
283.1 K	0.1994
285.3 K	0.2375
289.3 K	0.314
291.3 K	0.3569
293.3 K	0.4045
296.3 K	0.4849
299.5 K	0.5941
302.2 K	0.6949
305.2 K	0.847
